Assay results: paper PMC5702947, “A Study on Cytotoxic and Apoptotic Potential of a Triterpenoid Saponin (3-O-α-L-Arabinosyl Oleanolic Acid) Isolated from Schumacheria castaneifolia Vahl in Human Non-Small-Cell Lung Cancer (NCI-H292) Cells” (BioMed Research International, 2017)

Key:
[1] = tested on: NCI-H292 cells; assay: Sulforhodamine B (SRB) cytotoxicity assay in NCI-H292 cells; type: cell-based; conditions: Homo sapiens
Method: (§1) Sulphorhodamine B (SRB) assay was used to dertmine cytotoxic effects of the compound (3-O-L-AO) in NCI-H292 and MRC-5 cells. Cells (5 × 10^3/well) were seeded in 96-well tissue culture plates and incubated for 24 h. After 24 h incubation, cells were treated with 3-O-L-AO (0.78–25 μg/mL) and incubated for 24, 48, and 72 h. Paclitaxel (0.47–15 μg/mL) was used as the positive control. Cells were washed with PBS for three times and then fixed by adding 50% trichloroacetic acid (TCA) to each well followed by washing five times with tap water. After fixing, cells were stained with 0.4% SRB dye for 20 min followed by washing five times with 1% acetic acid. Tris-base (10 mM) was then added to each well and plates were kept on a plate shaker for 1 h at room temperature. The absorbance was measured using a microplate reader (Synergy HT, USA) at wavelength of 540 nm.

[2] = tested on: MRC-5 cells; assay: Sulforhodamine B (SRB) cytotoxicity assay in MRC-5 cells; type: cell-based; conditions: Homo sapiens
Method: as §1

[3] = tested on: NCI-H292 cells; assay: Cytomorphological changes under phase-contrast microscope, NCI-H292 cells; type: cell-based, human; conditions: NCI-H292 cells, 1.5, 6.25 and 12.5 μg/mL, 24, 48, 72 h, phase-contrast images
Text: (§2) Morphological changes of lung cancer cells (NCI-H292) and normal fibroblasts (MRC-5) cells after exposure to 3-O-L-AO were captured using inverted phase-contrast microscope (Olympus CKX41, Japan).

[4] = tested on: MRC-5 cells; assay: Cytomorphological changes under phase-contrast microscope, MRC-5 cells; type: cell-based, human; conditions: MRC-5 cells, 1.5, 6.25 and 12.5 μg/mL, 24, 48, 72 h, phase-contrast images
Text: as §2

[5] = tested on: NCI-H292 cells; assay: AO/EB staining, apoptosis related morphology under fluorescence microscopy; type: cell-based, human; conditions: NCI-H292 cells, 2.5, 5 and 10 μg/mL, 24 h
Method: NCI-H292 lung cancer cells (2 × 10^4 cells/well) cultured on coverslips were treated with 3-O-L-AO (2.5, 5, and 10 μg/mL) for 24 h. After incubation, cells were washed with phosphate buffer saline (PBS) and fixed with 4% formaldehyde for 15 min. Fixed cells were again washed with PBS and stained with acridine orange/ethidium bromide as previously described by us. Stained cells were observed under a fluorescence microscope (Olympus, BX51TRF, Japan).

[6] = tested on: caspase 3/7; assay: Caspase-Glo 3/7 activity assay in NCI-H292 cells; type: cell-based, human; conditions: NCI-H292 cells, 0.5, 1 and 2 μg/mL (all three doses), 24 h
Method: Caspase 3/7 activity in NCI-H292 cells was measured using the Caspase-Glo 3/7 assay kit according to manufacturer's protocol. Prior to the assay, NCI-H292 cells were treated with three doses of 3-O-L-AO (0.5, 1, and 2 μg/mL) and incubated for 24 h.

[7] = tested on: p53 gene; assay: Quantitative real-time PCR, p53 gene expression in NCI-H292 cells; type: cell-based, human; conditions: 24 h
Method: (§3) NCI-H292 cells (2 × 10^5 cells/mL) grown in T-25 tissue culture flasks were treated with 3-O-L-AO (1 and 2 μg/mL) and incubated for another 24 h. TRIzol reagent was used to extract RNA as described by Ediriweera et al., 2016 [13]. Extracted RNA (2 μg) was incubated with 50 ng of random primers and 13.5 μL of PCR water for 5 min at 70°C. cDNA synthesis was then carried out after mixing with a maxter mix containing 5 μL MMLV (Moloney Murine Leukemia Virus Reverse Transcriptase) reaction buffer, 5 μL 10 mM dNTP mix, 25 units of RNasin, and 200 units of MMLV RT enzyme, following incubation at 37°C for 60 min, in a total volume of 25 μL. Stratagene Mx3000P real-time PCR system (Agilent Technologies, CA, USA) was used to carry out real-time PCR. Primers used have been previously described. For real-time PCR, 2 μL of cDNA was mixed with Master Mix containing 0.5 μL of forward and reverses primers, 12.5 μL SYBR Green Master Mix (Eurogentec, Seraing, Liège, Belgium), and 9.5 μL PCR water. The thermal cycle programme set for real-time PCR include stage 1, 95°C for 10 min and stage two consisting of three steps: denaturation at 95°C for 30 s, annealing at 56°C for 1 min, and extension at 72°C for 30 s and stage 2 was repeated for 40 cycles. […] Gene expression was quantified using the method described by Livak and Schmittgen, 2001 [14].

[8] = tested on: Bax gene; assay: Quantitative real-time PCR, Bax gene expression in NCI-H292 cells; type: cell-based, human; conditions: 1 and 2 μg/mL (both doses), 24 h
Method: as §3

[9] = tested on: survivin gene; assay: Quantitative real-time PCR, survivin gene expression in NCI-H292 cells; type: cell-based, human; conditions: 1 and 2 μg/mL (both doses), 24 h, downregulation not significant
Method: as §3

[10] = tested on: reactive oxygen species (ROS); assay: Reactive oxygen species (ROS) level, NBT assay in NCI-H292 cells; type: cell-based, human; conditions: NCI-H292 cells, 0.5, 1 and 2 μg/mL (all three doses), 24 h, dose dependant
Method: (§4) Evaluation of oxidative stress markers (reactive oxygen species (ROS), glutathione-S-transferase (GST), and glutathione (GSH)) after exposure to 3-O-L-AO in NCI-H292 cells was determined as previously described by us.
NCI-H292 cells (20,000 cells/well) were plated in 96-well cell plates and incubated for 24 h. Following incubation, cells were treated with 3-O-L-AO (0.5, 1, and 2 μg/mL) and incubated for 24 h. Nitro Blue Tetrazolium (NBT) solution (1 mg/mL, 20 μL) was then added to each well and incubated for 1 h at 37°C. Blue formazan formed was then solubalized after adding 100 μL of dimethyl sulfoxide (DMSO) and the absorbance was read at 620 nm.

[11] = tested on: glutathione (GSH); assay: Glutathione (GSH) levels in NCI-H292 cells; type: cell-based, human; conditions: NCI-H292 cells, 0.5, 1 and 2 μg/mL (all three doses), 24 h, p < 0.0001
Method: as §4
NCI-H292 cells were (1 × 10^5 cells/well) exposed to 3-O-L-AO (0.5, 1, and 2 μg/mL) for 24 h. After incubation, cells were collected by trypsinization. Collected cell pellets were mixed with ice-cold KCl (2 mL) and 0.5 M EDTA (1 mL) and sonicated for […]. Cell lysate was then centrifuged at 10,000 g for 15 min to obtain a clear supernatant and it was kept on ice throughout the experiments. Supernatent (75 μL) was mixed with 75 μL of 5% sulfosalicylic acid, 20 μL of 4% DTNB [5,5-dithiobis-(2-nitrobenzoic acid)], and 30 μL of 0.1 M potassium phosphate buffer (pH 8.0) and incubated for 30 min. Absorbance was then recorded at 412 nm and glutathione levels were calculated as nM/mg of cell lysate protein with the help of a GSH standard curve.

[12] = tested on: glutathione-S-transferase (GST); assay: Glutathione-S-transferase (GST) activity in NCI-H292 cell lysates; type: cell-based, human; conditions: NCI-H292 cells, 0.5, 1 and 2 μg/mL (all three doses), 24 h, p < 0.05 to p < 0.0001
Method: as §4
An aliquot of cell lysates prepared for GSH assays was used to analyse GST activity. Glutathione and CDNB (1-chloro-2,4-dinitrobenzene) were served as substrates in this assay. A mixture was prepared by mixing 490 μL of PBS (pH 6.5), 5 μL of CDNB (100 mM), and 5 μL of GSH (100 mM); 180 μL of this mixture was mixed with 20 μL of cell lysate and incubated for 5 min at 37°C. Absorbance was recoreded at 340 nm for 5 min (1-minute time intervals). Quantity of GST catalyzing the oxidation of 1 millimole of 1-chloro-2,4-dinitrobenzene per minute at 37°C was considerd as one unit of GST activity.

[13] = tested on: Staphylococcus aureus; parameters: method as in earlier work; conditions: cited from earlier work
[14] = tested on: Escherichia coli; parameters: method as in earlier work; conditions: cited from earlier work

Structure (SMILES): CC1(C)CCC2(C(=O)O)CCC3(C)C(=CCC4C5(C)CCC(OC6OCC(O)C(O)C6O)C(C)(C)C5CCC43C)C2C1 [3-O-L-AO, 3-O-α-L-arabinosyl oleanolic acid]
- IC50 ([1]; 24 h incubation): 4.33 µg/mL
- IC50 ([1]; 48 h incubation): 2.69 µg/mL
- IC50 ([1]; 72 h incubation): 1.5 µg/mL
- IC50 ([2]; MRC5, 24 h incubation): 5.4 µg/mL
- IC50 ([2]; MRC5, 48 h incubation): 4.59 µg/mL
- IC50 ([2]; MRC5, 72 h incubation): 2.83 µg/mL
- Cytomorphological changes of lung cancer cells [3]: decreased cell volume and rounding up cells
- Cytomorphological changes of normal lung fibroblast cells [4]: decreased cell volume and rounding up cells
- Apoptotic induction (AO/EB staining) [5]: dose dependent apoptotic induction
- Caspase 3/7 activity compared to untreated control [6]: Significant (p < 0.0001) increase
- p53 gene expression ([7]; 1 μg/mL): upregulation
- p53 gene expression ([7]; 2 μg/mL): significant (p < 0.05) upregulation
- Bax gene expression [8]: Significant (p < 0.001 and p < 0.0001) upregulation
- survivin gene expression [9]: downregulation
- Reactive oxygen species (ROS) level [10]: significantly (p < 0.05 to p < 0.0001) increased
- GSH levels [11]: Significant reduction
- GST levels (activity) [12]: increase
- Antibacterial effects against Staphylococcus aureus [13]: Moderate antibacterial effects
- Antibacterial effects against Escherichia coli [14]: Moderate antibacterial effects

Structure (SMILES): CC(=O)O[C@H]1C(=O)[C@@]2(C)[C@H]([C@H](OC(=O)c3ccccc3)[C@]3(O)C[C@H](OC(=O)[C@H](O)[C@@H](NC(=O)c4ccccc4)c4ccccc4)C(C)=C1C3(C)C)[C@]1(OC(C)=O)CO[C@@H]1C[C@@H]2O [Paclitaxel, reference compound]
- IC50 ([1]; 24 h incubation): 8.37 µg/mL
- IC50 ([1]; 48 h incubation): 3.28 µg/mL
- IC50 ([1]; 72 h incubation): 1.59 µg/mL
- IC50 ([2]; MRC5, 24 h incubation): 1.51 µg/mL
- IC50 ([2]; MRC5, 48 h incubation): 0.96 µg/mL
- IC50 ([2]; MRC5, 72 h incubation): 0.35 µg/mL
